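In this assay, cells in 96-well plates receive the compound at five concentrations for 48 hours. Endpoints are linearly interpolated between the surrounding concentrations. Here, GI50 denotes the concentration required for 50% inhibition of growth.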 Calls of active or inactive are those of the source. Rule as the data show it: active = GI50 up to about 1.1 µM and inactive = higher.
Tests used:
Assay in all cases: growth of human tumour cells (NCI), 48 h
[1] = system: NCI-H226
[2] = system: 786-0
[3] = system: RXF 393
[4] = system: RPMI-8226
[5] = system: OVCAR-8
[6] = system: A549
[7] = system: HT-29
[8] = system: UACC-257
[9] = system: HCC 2998
[10] = system: SK-OV-3
[11] = system: SF-295
[12] = system: SW-620
[13] = system: COLO 205
[14] = system: BT-549
[15] = system: CAKI-1
[16] = system: MDA-MB-231
[17] = system: EKVX
[18] = system: NCI-H23
[19] = system: PC-3
[20] = system: SN12C
[21] = system: MDA-N
[22] = system: HCT-116
[23] = system: ACHN
[24] = system: SNB-75
[25] = system: HCT-15
[26] = system: MDA-MB-435
[27] = system: HOP-92
[28] = system: K562
[29] = system: SF-539
[30] = system: DU-145
[31] = system: SK-MEL-2
[32] = system: IGROV-1
[33] = system: A498
[34] = system: T47D
[35] = system: NCI-H522
[36] = system: HOP-62
[37] = system: Hs-578T
[38] = system: UACC-62
[39] = system: OVCAR-5
[40] = system: U-251
[41] = system: NCI-H460
[42] = system: OVCAR-4
[43] = system: SF-268
[44] = system: UO-31
[45] = system: SK-MEL-5
[46] = system: M14
[47] = system: MCF7
[48] = system: TK-10
[49] = system: SNB-19
[50] = system: SK-MEL-28
[51] = system: LOX IMVI
[52] = system: KM12
[53] = system: NCI/ADR-RES
[54] = system: MOLT-4
[55] = system: OVCAR-3
[56] = system: Malme-3M
[57] = system: SR
[58] = system: CCRF-CEM

For `C=CCCC1CCCNC1=S` (stereo unspecified), the GI50 [1] was > 100 µM (inactive), the GI50 [2] was > 100 µM (inactive) and the GI50 [3] was > 100 µM (inactive). For the same compound, the GI50 [4] was > 100 µM (inactive), the GI50 [5] was > 100 µM (inactive) and the GI50 [6] was > 100 µM (inactive). For the same compound, the GI50 [7] was > 100 µM (inactive), the GI50 [8] was > 100 µM (inactive) and the GI50 [9] was > 100 µM (inactive). The GI50 [10] was > 100 µM (inactive), the GI50 [11] was > 100 µM (inactive) and the GI50 [12] was > 100 µM (inactive). The GI50 [13] was > 100 µM (inactive), the GI50 [14] was > 100 µM (inactive) and the GI50 [15] was > 100 µM (inactive). For the same compound, the GI50 [16] was > 100 µM (inactive), the GI50 [17] was > 100 µM (inactive) and the GI50 [18] was > 100 µM (inactive). For the same compound, the GI50 [19] was > 100 µM (inactive), the GI50 [20] was > 100 µM (inactive) and the GI50 [21] was > 100 µM (inactive). The GI50 [22] was > 100 µM (inactive), the GI50 [23] was > 100 µM (inactive) and the GI50 [24] was > 100 µM (inactive). The GI50 [25] was > 100 µM, the GI50 [26] was > 100 µM (inactive) and the GI50 [27] was > 100 µM (inactive). The GI50 [28] was > 100 µM (inactive), the GI50 [29] was > 100 µM (inactive) and the GI50 [30] was > 100 µM (inactive). The GI50 [31] was > 100 µM (inactive), the GI50 [32] was > 100 µM (inactive) and the GI50 [33] was > 100 µM (inactive). For the same compound, the GI50 [34] was > 100 µM (inactive), the GI50 [35] was > 100 µM (inactive) and the GI50 [36] was > 100 µM (inactive). For the same compound, the GI50 [37] was > 100 µM (inactive), the GI50 [38] was > 100 µM (inactive) and the GI50 [39] was > 100 µM (inactive). For the same compound, the GI50 [40] was > 100 µM (inactive), the GI50 [41] was > 100 µM (inactive) and the GI50 [42] was > 100 µM (inactive). The GI50 [43] was > 100 µM (inactive), the GI50 [44] was > 100 µM (inactive) and the GI50 [45] was > 100 µM (inactive). For the same compound, the GI50 [46] was > 100 µM (inactive), the GI50 [47] was > 100 µM (inactive) and the GI50 [48] was > 100 µM (inactive). For the same compound, the GI50 [49] was > 100 µM (inactive) and the GI50 [50] was > 100 µM (inactive).

In the case of `COc1cc(OC)cc(-n2c(N)c(-c3nc4ccccc4n3C)c3ccc([N+](=O)[O-])cc3c2=O)c1`, the GI50 [1] was 70.6 µM (inactive), the GI50 [2] was 64.7 µM (inactive) and the GI50 [4] was > 100 µM (inactive). The GI50 [5] was 32 µM (inactive), the GI50 [6] was > 100 µM (inactive) and the GI50 [7] was > 100 µM (inactive). For the same compound, the GI50 [8] was > 100 µM (inactive), the GI50 [9] was > 100 µM (inactive) and the GI50 [51] was > 100 µM (inactive). For the same compound, the GI50 [52] was 35.6 µM (inactive), the GI50 [12] was > 100 µM (inactive) and the GI50 [13] was > 100 µM (inactive). For the same compound, the GI50 [14] was > 100 µM (inactive), the GI50 [15] was > 100 µM (inactive) and the GI50 [16] was 80.5 µM (inactive). The GI50 [18] was > 100 µM (inactive), the GI50 [19] was > 100 µM (inactive) and the GI50 [20] was 94.4 µM (inactive). The GI50 [21] was > 100 µM (inactive), the GI50 [22] was > 100 µM (inactive) and the GI50 [23] was 83.4 µM (inactive). For the same compound, the GI50 [24] was 2.02 µM (inactive), the GI50 [25] was > 100 µM and the GI50 [26] was > 100 µM (inactive). The GI50 [27] was 18.6 µM (inactive), the GI50 [28] was > 100 µM (inactive) and the GI50 [30] was > 100 µM (inactive). For the same compound, the GI50 [31] was > 100 µM (inactive), the GI50 [33] was > 100 µM (inactive) and the GI50 [34] was > 100 µM (inactive). For the same compound, the GI50 [35] was 55.8 µM (inactive), the GI50 [37] was 26.4 µM (inactive) and the GI50 [38] was > 100 µM (inactive). For the same compound, the GI50 [40] was 46.8 µM (inactive), the GI50 [53] was 33.8 µM (inactive) and the GI50 [41] was > 100 µM (inactive). The GI50 [42] was 28.2 µM (inactive), the GI50 [43] was 55.5 µM (inactive) and the GI50 [44] was > 100 µM (inactive). The GI50 [45] was > 100 µM (inactive), the GI50 [48] was > 100 µM (inactive) and the GI50 [49] was 40.6 µM (inactive). The GI50 [50] was > 100 µM (inactive).

`NC(CCc1ccccc1)(C(=O)O)c1ccccc1` (stereo unspecified) was tested, and the GI50 [54] was > 100 µM (inactive), the GI50 [1] was > 100 µM (inactive) and the GI50 [55] was > 100 µM (inactive). The GI50 [2] was > 100 µM (inactive), the GI50 [3] was > 100 µM (inactive) and the GI50 [5] was > 100 µM (inactive). The GI50 [6] was > 100 µM (inactive), the GI50 [7] was > 100 µM (inactive) and the GI50 [8] was > 100 µM (inactive). The GI50 [9] was > 100 µM (inactive), the GI50 [51] was > 100 µM (inactive) and the GI50 [52] was > 100 µM (inactive). For the same compound, the GI50 [11] was > 100 µM (inactive), the GI50 [12] was > 100 µM (inactive) and the GI50 [14] was > 100 µM (inactive). The GI50 [15] was > 100 µM (inactive), the GI50 [16] was > 100 µM (inactive) and the GI50 [17] was > 100 µM (inactive). For the same compound, the GI50 [18] was > 100 µM (inactive), the GI50 [19] was > 100 µM (inactive) and the GI50 [20] was > 100 µM (inactive). For the same compound, the GI50 [21] was > 100 µM (inactive), the GI50 [56] was > 100 µM (inactive) and the GI50 [22] was > 100 µM (inactive). For the same compound, the GI50 [23] was > 100 µM (inactive), the GI50 [24] was > 100 µM (inactive) and the GI50 [25] was > 100 µM. For the same compound, the GI50 [26] was > 100 µM (inactive), the GI50 [57] was > 100 µM (inactive) and the GI50 [27] was > 100 µM (inactive). For the same compound, the GI50 [28] was > 100 µM (inactive), the GI50 [30] was > 100 µM (inactive) and the GI50 [31] was > 100 µM (inactive). For the same compound, the GI50 [32] was > 100 µM (inactive), the GI50 [33] was > 100 µM (inactive) and the GI50 [34] was > 100 µM (inactive). The GI50 [35] was > 100 µM (inactive), the GI50 [36] was > 100 µM (inactive) and the GI50 [37] was > 100 µM (inactive). For the same compound, the GI50 [38] was > 100 µM (inactive), the GI50 [58] was > 100 µM (inactive) and the GI50 [39] was > 100 µM (inactive). The GI50 [40] was > 100 µM (inactive), the GI50 [53] was > 100 µM (inactive) and the GI50 [41] was > 100 µM (inactive). The GI50 [42] was > 100 µM (inactive), the GI50 [43] was > 100 µM (inactive) and the GI50 [44] was > 100 µM (inactive). The GI50 [45] was > 100 µM (inactive), the GI50 [46] was > 100 µM (inactive) and the GI50 [48] was > 100 µM (inactive). The GI50 [49] was > 100 µM (inactive) and the GI50 [50] was > 100 µM (inactive).
